Results on 3 compounds are retold here after US12194048B2, “Use of pyrrolopyridine derivatives for preventing or treating inflammatory diseases” (VORONOI CO., LTD., priority 2020, dated 2025).

Data set [1] has as its system IMQ-induced psoriasis-like skin inflammation model. The data set can be described thus: Oral treatment in imiquimod (IMQ)-induced psoriasis-like skin inflammation. The class given is in vivo, BALB/c mice. The protocol:
The positive control, methotrexate at 2 mg/kg and tofacitinib at 5 mg/kg were administered by oral gavage twice (BID) daily during the same study period.
Fifteen (15) mg Imiquimod (IMQ) cream (5%) (Aldara; 3M Pharmaceuticals) was topically (TOP) administered once daily (QD) on the right ear one hour after treatment from Day 1 to Day 9 for 9 consecutive days, translating to a daily dose of 0.75 mg of the active compound. Ear swelling was measured on Day 0 and thereafter 30 min before dosing on Days 2, 4, 6 and 8. On Day 10, ear swelling was measured 24 hours after the last dosing.

For data set [2] the test system is unchanged. The data set can be described thus: Topical treatment in imiquimod (IMQ)-induced psoriasis-like skin inflammation. It is filed as in vivo, BALB/c mice. The conditions noted are these: 0.15% topical; during the study period. The protocol: Dexamethasone (0.15%), the reference compound, was applied topically at 20 μL/mouse on the right ear once daily (QD) during the same study period.
Fifteen (15) mg imiquimod (IMQ) cream (5%) (Aldara; 3M Pharmaceuticals) was topically administered once daily (QD) on the right ear one hour after treatment from Day 1 to Day 9 for 9 consecutive days, translating to a daily dose of 0.75 mg of the active compound.
Ear swelling was measured on Day 0 and thereafter 30 min before dosing on Days 2, 4, 6 and 8. On Day 10, ear swelling was measured 24 hours after the last dosing.

Regarding `CN(Cc1cnc2nc(N)nc(N)c2n1)c1ccc(C(=O)N[C@@H](CCC(=O)O)C(=O)O)cc1` [methotrexate], the body weight entry in data set [1] (2 mg/kg PO BID×9 days, Day 9 to Day 10) is given as “significantly decreased”. The IMQ-induced ear swelling entry in data set [1] (2 mg/kg oral gavage BID, Day 8, vs vehicle group) is on record as “significant (p<0.05) effect”.
For `C[C@@H]1CCN(C(=O)CC#N)C[C@@H]1N(C)c1ncnc2[nH]ccc12` [Tofacitinib, tofacitinib], the IMQ-induced ear swelling result in data set [1] (5 mg/kg oral gavage BID, Day 8 to Day 10) is recorded as “significant (p<0.05) inhibition”.
In the case of `C[C@@H]1C[C@H]2[C@@H]3CCC4=CC(=O)C=C[C@]4(C)[C@@]3(F)[C@@H](O)C[C@]2(C)[C@@]1(O)C(=O)CO` [dexamethasone, reference compound], the body weight entry in data set [2] is “significant (p<0.05) decrease”.
